Assay results taken from ChEMBL document CHEMBL4371054, “Dual inhibition of Kif15 by oxindole and quinazolinedione chemical probes” (Bioorg Med Chem Lett, 2019).
Calls of active or inactive are those of the source. The rule behind the calls is not given here.

Legend:
[1] = target: T1, Kinesin-like protein KIF15 (Homo sapiens) (UniProt Q9NS87); assay: Inhibition of Kif15 in TP53-deficient human RPE1 cells assessed as reduction in Kif15 level at 25 uM after 24 hrs by Western blot analysis relative to control
T1 sequence (whole entry): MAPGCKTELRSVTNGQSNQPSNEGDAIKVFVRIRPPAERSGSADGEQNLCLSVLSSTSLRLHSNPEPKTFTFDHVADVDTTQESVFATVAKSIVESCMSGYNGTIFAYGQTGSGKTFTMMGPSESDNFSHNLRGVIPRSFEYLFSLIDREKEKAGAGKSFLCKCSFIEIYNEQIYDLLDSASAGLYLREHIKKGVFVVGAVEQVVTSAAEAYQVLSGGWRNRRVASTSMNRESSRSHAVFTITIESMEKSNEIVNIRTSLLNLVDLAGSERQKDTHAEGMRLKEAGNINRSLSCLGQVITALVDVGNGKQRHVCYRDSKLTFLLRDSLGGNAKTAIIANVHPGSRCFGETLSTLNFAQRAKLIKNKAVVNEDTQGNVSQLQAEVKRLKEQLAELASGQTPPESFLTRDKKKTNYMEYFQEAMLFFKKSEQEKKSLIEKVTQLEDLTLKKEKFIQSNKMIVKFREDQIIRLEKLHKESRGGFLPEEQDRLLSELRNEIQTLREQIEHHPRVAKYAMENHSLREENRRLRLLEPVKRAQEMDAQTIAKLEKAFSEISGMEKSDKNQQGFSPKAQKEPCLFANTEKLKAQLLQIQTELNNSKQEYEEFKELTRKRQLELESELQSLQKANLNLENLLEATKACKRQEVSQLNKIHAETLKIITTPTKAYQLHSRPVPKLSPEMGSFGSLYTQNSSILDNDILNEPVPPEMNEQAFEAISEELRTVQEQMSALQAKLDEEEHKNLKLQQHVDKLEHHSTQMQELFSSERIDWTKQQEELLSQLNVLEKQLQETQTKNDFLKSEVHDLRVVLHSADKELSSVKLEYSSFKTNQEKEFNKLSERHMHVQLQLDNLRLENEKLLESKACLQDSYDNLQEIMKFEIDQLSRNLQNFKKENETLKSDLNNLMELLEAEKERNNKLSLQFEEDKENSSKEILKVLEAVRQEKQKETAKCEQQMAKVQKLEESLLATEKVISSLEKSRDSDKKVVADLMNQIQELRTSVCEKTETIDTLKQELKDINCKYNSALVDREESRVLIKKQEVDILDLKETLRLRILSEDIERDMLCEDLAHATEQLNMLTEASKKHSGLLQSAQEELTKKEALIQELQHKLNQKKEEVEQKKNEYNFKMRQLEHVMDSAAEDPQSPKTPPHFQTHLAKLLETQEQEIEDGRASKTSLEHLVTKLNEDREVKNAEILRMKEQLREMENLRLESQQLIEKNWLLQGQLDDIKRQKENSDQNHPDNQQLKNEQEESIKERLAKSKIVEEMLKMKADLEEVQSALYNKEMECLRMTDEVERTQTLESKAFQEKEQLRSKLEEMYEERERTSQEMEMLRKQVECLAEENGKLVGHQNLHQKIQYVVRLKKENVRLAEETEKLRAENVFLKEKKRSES

[2] = target: T1, Kinesin-like protein KIF15 (Homo sapiens); assay: (§1) ATP non-competitive inhibition of recombinant His6-tagged Kif15 ATPase activity (N700 residues) (unknown origin) expressed in HeLa cells at 0.5 to 2 uM using microtubule as substrate preincubated for 30 mins followed by varying levels of ATP addition by double reciprocal Lineweaver-Burk plot analysis
[3] = target: T2, Kinesin-like protein KIF15 (Homo sapiens, UniProt Q9NS87); assay: Inhibition of recombinant His6-tagged Kif15 (N700 residues) (unknown origin) expressed in HeLa cells assessed as reduction in Alexa-594 labelled microtubule gliding measured every 2 secs for 20 secs by epifluorescence microscopic analysis; format: cell-based
T2 sequence (Q9NS87 whole entry): T1 sequence (whole entry)

[4] = target: T1, Kinesin-like protein KIF15 (Homo sapiens); assay: Inhibition of Kif15 in K51-resistant human KIRC1 cells assessed as increase in cells with monopolar spindles after 24 hrs by Hoechst 33342 staining based immunofluorescence microscopic analysis
[5] = target: T3, Aurora kinase A (Homo sapiens) (UniProt O14965); assay: Inhibition of AURKA (unknown origin) at 1 uM relative to control
T3 sequence (whole entry): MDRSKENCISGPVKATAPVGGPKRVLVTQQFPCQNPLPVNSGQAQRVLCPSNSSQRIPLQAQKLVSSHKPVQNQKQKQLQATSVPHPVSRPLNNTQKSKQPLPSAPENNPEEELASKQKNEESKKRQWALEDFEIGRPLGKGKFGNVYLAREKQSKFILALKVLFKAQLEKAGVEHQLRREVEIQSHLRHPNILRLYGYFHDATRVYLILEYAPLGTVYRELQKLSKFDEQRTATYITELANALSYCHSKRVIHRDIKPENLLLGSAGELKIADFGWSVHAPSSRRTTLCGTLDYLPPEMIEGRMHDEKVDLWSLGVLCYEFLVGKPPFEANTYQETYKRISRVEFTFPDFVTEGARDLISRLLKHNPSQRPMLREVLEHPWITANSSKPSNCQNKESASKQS

[6] = target: T1, Kinesin-like protein KIF15 (Homo sapiens); assay: as §1, with “using varying levels of” for “using”, “by” for “by varying levels of”; format: cell-based
[7] = target: T4, Kinesin-like protein KIFC1 (Homo sapiens) (UniProt Q9BW19); assay: Inhibition of recombinant His6-tagged HSET (unknown origin) assessed as reduction in Alexa-594 labelled microtubule gliding at 30 uM measured every 2 secs for 20 secs by epifluorescence microscopic analysis relative to control
T4 sequence (whole entry): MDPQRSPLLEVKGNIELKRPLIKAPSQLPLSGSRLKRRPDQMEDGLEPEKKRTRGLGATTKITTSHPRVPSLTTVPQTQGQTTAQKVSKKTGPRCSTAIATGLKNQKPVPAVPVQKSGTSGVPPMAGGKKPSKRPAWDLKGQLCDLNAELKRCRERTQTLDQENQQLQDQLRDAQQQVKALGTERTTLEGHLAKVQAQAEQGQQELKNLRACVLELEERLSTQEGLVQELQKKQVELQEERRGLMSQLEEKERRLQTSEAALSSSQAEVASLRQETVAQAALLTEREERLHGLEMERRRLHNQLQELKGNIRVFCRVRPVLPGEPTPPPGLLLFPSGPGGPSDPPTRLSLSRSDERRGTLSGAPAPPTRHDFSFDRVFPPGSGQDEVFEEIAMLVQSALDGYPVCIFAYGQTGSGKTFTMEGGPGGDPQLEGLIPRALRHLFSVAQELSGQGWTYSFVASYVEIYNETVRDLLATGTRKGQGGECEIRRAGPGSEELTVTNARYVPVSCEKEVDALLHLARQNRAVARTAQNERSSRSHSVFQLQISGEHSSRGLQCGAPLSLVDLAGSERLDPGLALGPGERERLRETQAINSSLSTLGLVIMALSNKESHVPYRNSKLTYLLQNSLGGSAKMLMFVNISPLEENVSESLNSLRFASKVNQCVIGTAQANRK

`O=C1Nc2ccc(C(=O)c3ccco3)cc2/C1=C/c1cc(Cl)c(O)c(Cl)c1` was tested, and the inhibition [1] was 60%, the inhibition [2] was “Active” and the IC50 [3] was 0.75 µM. For the same molecule, the inhibition [4] was “Dose-dependent effect”, the inhibition [5] was 67% and the inhibition [6] was “Active”. The inhibition [7] was 5.3%.
